# Source: US8420311B2, “Method to block the infection by flaviviruses, molecules and uses” (Centro de Ingenieria Genetica y Biotecnologia, priority 2006, dated 2013)
# Where a SMILES comes first, the peptide text is derived from it. Bridges are numbered along the chain shown (N, C = ends). Where no end group is shown, it is not given here.
# Tests used:
# DV1 = type: cell-based, dengue virus; settings: peptides 0.1 mg/ml; Vero cells
# Description: (§1) FIG. 17. Inhibition of the infection of Vero cells with DV1 and DV2. (A) Six-well plates with a monolayer at approximately 90% confluence were incubated for 30 min. at 37° C. with dilutions of the peptides in MEM medium. A dilution of either DV1 strain West Pac 74 or DV2 strain S16803 was then added, calculated so as to obtain an average of 100 lytic plaques per well, and the plates were incubated for 30 min. at 37° C. with the virus/peptide mixture. After the incubation the cells were washed twice, received the addition of MEM medium supplemented with non-essential amino acids, 1% fetal calf serum, 1% CMC, and finally were incubated for 5 days at 37° C. under a CO2 atmosphere. (B) Inhibitory effect of the peptides at 100 μMol/L. NRpep: Non-related peptide. Data on the sequence of the peptides 3H5pept (SEQ ID. 27), pepDIII-1 (SEQ ID. 28), HIII2CL (SEQ ID. 5) and HIII3CL (SEQ ID. 7), as well as on the region they span on DIII from DV, can be obtained from FIG. 11. The calculation of the inhibition percentages is described in Materials and Methods. (C) Inhibition of DV2 infection by using varying peptide concentrations. The viral plaques were visualized by staining with Naphtol Blue Black. Cell control: Untreated cells. Virus control: Cells incubated with the virus, but without peptide.
# (§2) DIII has one of the most variable regions of the exposed surface of protein E. In fact, one of the antigenic characteristics of this domain is that the antibodies obtained against this region are predominantly serotype-specific (Roehrig J T, Bolin R A, Kelly R G (1998) Monoclonal antibody mapping of the envelope glycoprotein of the dengue 2 virus, Jamaica Virology 246:317-28). However, during the inhibition assay with different DV serotypes, the peptides display a wide-spectrum inhibitory activity, efficiently inhibiting the infection of strains of the homologous, as well as of the heterologous serotypes (table 3). It is important to notice that at the assayed concentration (0.1 mg/ml) all the peptides in all the conditions, with the exception of peptide HIII4CL for DV3, produced higher than 50% inhibition levels.
# DV2 = type: cell-based, dengue virus; settings: peptides 0.1 mg/ml; Vero cells
# Description: as §1, §2
# DV4 = type: cell-based, dengue virus; settings: peptides 0.1 mg/ml; Vero cells
# Description: as §2
# DV3 = type: cell-based, dengue virus; settings: for degree of reduction of the number of viral plaques, DV3: peptides 0.1 mg/ml, Vero cells
# Description: as §2
# [1] = target: T1, DIIIE2J (DIII from protein E of DV2) (Dengue virus type 2, UniProt P07564); assay: Direct binding between DIIIE2J and A2M measured by Biacore; design: species or system DV2 strain Jamaica 1409; settings: A2M 0.3 to 3 μMol/L
# T1 construct: made in house; host or cells: Escherichia coli BL21(DE3)
# T1 sequence (P07564 568-687, looked up, natural form): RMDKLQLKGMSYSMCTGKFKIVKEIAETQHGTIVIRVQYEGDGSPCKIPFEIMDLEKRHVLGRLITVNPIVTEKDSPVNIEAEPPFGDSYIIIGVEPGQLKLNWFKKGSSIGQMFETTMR
# Description: FIG. 6. Direct binding between DIIIE2J and A2M, measured by Biacore. Response curves obtained during and after the injection of (B) Monoclonal antibodies against DV serotype 2 (3H5) and against all FV (4G2); (C) Polyclonal mouse antibody preparations obtained by immunization with DV1 and DV2, including pre-immune sera and (D) A2M dilutions, at concentrations from 0.3 μMol/L to 3 μMol/L. The run was performed on PBS pH 7.4 at 25° C. The different A2M dilutions were loaded at a flow of 5 μL/min for 20 min. The response is represented in resonance units (RU) corrected for unspecific binding using the response from the channel without immobilized protein (less than 5% of the specific signal).
# A cm5 chip (Biacore, Sweden) was used for the covalent immobilization of the DIIIE2J and LRP1 proteins. The immobilization was carried out at 25° C., with a flow of 5 μL/min and using HBS (Biacore, Sweden) as running buffer. The surface of the chip was activated by loading 35 μL of 0.2 Mol/L […] (EDC) and 0.05 Mol/L N-hydroxysuccinimide (NHS). Afterwards the proteins, dissolved in 10 mM sodium acetate buffer pH 4.5, were loaded into the system. At the end of the immobilization, 35 μL of 1 M ethanolamine pH 8 were loaded into the system in order to block any remaining free activated groups. The channel to be used as a negative control in each case received only the activating injections with the EDC:NHS solution and the blocking with ethanolamine, employing the same flow and injection volume. The results were analyzed using the BIAevaluation ver. 4.1 software application package (Biacore, Sweden).
# In order to estimate the strength of the interaction between DIIIE2J and human A2M, 1600 RU of DIIIE2J were covalently immobilized on a CM5 chip (channel 1, FIG. 6A) (Biacore, Sweden), following the procedure described in the Materials and Methods section. […]
Molecule,"degree of reduction of the number of viral plaques, DV1 (DV1)","degree of reduction of the number of viral plaques, DV2 (DV2)","degree of reduction of the number of viral plaques, DV4 (DV4)","inhibition level, DV3 (DV3; 0.1 mg/ml) [%]","degree of reduction of the number of viral plaques, DV3 (DV3)",nature of the interaction between both proteins [1],"Kd ([1]; immobilized DIIIE2J, PBS pH 7.4 at 25° C., read-out: apparent Kd) [nM]"
CC[C@H](C)[C@@H]1NC(=O)[C@H](Cc2ccc(O)cc2)NC(=O)[C@H](CO)NC(=O)[C@@H](N)CSSC[C@@H](C(N)=O)NC(=O)[C@H](Cc2c[nH]c3ccccc23)NC(=O)[C@H](Cc2c[nH]cn2)NC(=O)[C@H](CC(C)C)NC(=O)[C@H]([C@@H](C)O)NC(=O)[C@H](CC(C)C)NC(=O)[C@H](C)NC(=O)[C@H](CO)NC(=O)[C@H](CC(N)=O)NC(=O)CNC(=O)[C@H](C(C)C)NC(=O)CNC(=O)[C@H]([C@@H](C)CC)NC(=O)[C@H](C(C)C)NC1=O [HDIII4CL] (H-CSYIVIGVGNSALTLHWC-NH2; disulfide 1-18; N-terminus assumed),+ (50% or higher decrease),+ (50% or higher decrease),+ (50% or higher decrease),≤ 50,+/− (10-50% decrease in the number of plaques),–,–
"HDIII1CL: cyclic synthetic peptide based on the FG beta hairpin of DIII of protein E from DV1, SEQ ID. 6 (CSYIVVGAGEKALKLSWC-NH2; disulfide 1-18 (inferred))",+ (50% or higher decrease),+ (50% or higher decrease),+ (50% or higher decrease),–,+ (50% or higher decrease),–,–
"A2M: human Alfa 2-macroglobulin purified from human plasma, Seq. ID. 2 (protein, listed as Homo sapiens) MGKNKLLHPSLVLLLLVLLPTDASVSGKPQYMVLVPSLLHTETTEKGCVLLSYLNETVTVSASLESVRGNRSLFTDLEAENDVLHCVAFAVPKSSSNEEVMFLTVQVKGPTQEFKKRTTVMVKNEDSLVFVQTDKSIYKPGQTVKFRVVSMDENFHPLNELIPLVYIQDPKGNRIAQWQSFQLEGGLKQFSFPLSSEPFQGSYKVVVQKKSGGRTEHPFTVEEFVLPKFEVQVTVPKIITILEEEMNVSVCGLYTYGKPVPGHVTVSICRKYSDASDCHGEDSQAFCEKFSGQLNSHGCFYQQVKTKVFQLKRKEYEMKLHTEAQIQEEGTVVELTGRQSSEITRTITKLSFVKVDSHFRQGIPFFGQVRLVDGKGVPIPNKVIFIRGNEANYYSNATTDEHGLVQFSINTTNVMGTSLTVRVNYKDRSPCYGYQWVSEEHEEAHHTAYLVFSPSKSFVHLEPMSHELPCGHTQTVQAHYILNGGTLLGLKKLSFYYLIMAKGGIVRTGTHGLLVKQEDMKGHFSISIPVKSDIAPVARLLIYAVLPTGDVIGDSAKYDVENCLANKVDLSFSPSQSLPASHAHLRVTAAPQSVCALRAVDQSVLLMKPDAELSASSVYNLLPEKDLTGFPGPLNDQDDEDCINRHNVYINGITYTPVSSTNEKDMYSFLEDMGLKAFTNSKIRKPKMCPQLQQYEMHGPEGLRVGFYESDVMGRGHARLVHVEEPHTETVRKYFPETWIWDLVVVNSAGVAEVGVTVPDTITEWKAGAFCLSEDAGLGISSTASLRAFQPFFVELTMPYSVIRGEAFTLKATVLNYLPKCIRVSVQLEASPAFLAVPVEKEQAPHCICANGRQTVSWAVTPKSLGNVNFTVSAEALESQELCGTEVPSVPEHGRKDTVIKPLLVEPEGLEKETTFNSLLCPSGGEVSEELSLKLPPNVVEESARASVSVLGDILGSAMQNTQNLLQMPYGCGEQNMVLFAPNIYVLDYLNETQQLTPEVKSKAIGYLNTGYQRQLNYKHYDGSYSTFGERYGRNQGNTWLTAFVLKTFAQARAYIFIDEAHITQALIWLSQRQKDNGCFRSSGSLLNNAIKGGVEDEVTLSAYITIALLEIPLTVTHPVVRNALFCLESAWKTAQEGDHGSHVYTKALLAYAFALAGNQDKRKEVLKSLNEEAVKKDNSVHWERPQKPKAPVGHFYEPQAPSAEVEMTSYVLLAYLTAQPAPTSEDLTSATNIVKWITKQQNAQGGFSSTQDTVVALHALSKYGAATFTRTGKAAQVTIQSSGTFSSKFQVDNNNRLLLQQVSLPELPGEYSMKVTGEGCVYLQTSLKYNILPEKEEFPFALGVQTLPQTCDEPKAHTSFQISLSVSYTGSRSASNMAIVDVKMVSGFIPLKPTVKMLERSNHVSRTEVSSNHVLIYLDKVSNQTLSLFFTVLQDVPVRDLKPAIVKVYDYYETDEFAIAEYNAPCSKDLGNA",–,–,–,–,–,saturable and reversible,~100
